# Laboratory results published in patent US6355799B1, “Substituted benzene compounds, process for their preparation, and herbicidal and defoliant compositions containing them” (ISK Americas Incorporated, priority 1997, dated 2002).
# Legend:
# Assay type in all cases: in vivo
# [1] = system: redroot pigweed (Amaranthus retroflexus, AMARE); assay: Pre-emerge test, greenhouse herbicide activity screening; settings: pre-emerge, rated 14 days after application, 0 = no damage, 100 = complete death
# In short: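 Compounds in acetone were track-sprayed at 15-1000 g ai/ha (187 l/ha) on sandy loam pots: pre-emerge one day after seeding, post-emerge at 2-3 leaf stage with 0.25% v/v non-ionic surfactant. Phytotoxicity was rated 14 days later on a 0 (no damage) to 100 (complete death) scale.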
# [2] = system: upland rice (Oryza sp., var. Tebonnet, RICE); assay: Pre-emerge test, crop safety; settings: pre-emerge, rated 14 days after application, 0 = no damage, 100 = complete death
# In short: (§1)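 Compounds in acetone were track-sprayed at 187 l/ha, 15–1000 g ai/ha, onto sandy loam pots. Pre-emerge seeds were sown one day before spraying, with surface watering afterwards. Post-emerge plants were at the 2–3 leaf stage and sprayed with 0.25% v/v non-ionic surfactant. Injury was rated 0–100 at 14 days.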
# [3] = system: field corn (Zea mays L., var. Dekalb 535, CORN); assay: Pre-emerge test, crop safety; settings: pre-emerge, rated 14 days after application, 0 = no damage, 100 = complete death
# In short: as §1
# [4] = system: velvetleaf (Abutilon theophrasti, ABUTH); assay: Post-emerge test, greenhouse herbicide activity screening; settings: phytotoxicity rating 0-100 (0 no damage, 100 complete death), 14 days after application
# In short: (§2)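 Plants grown in 10 cm pots of sandy loam mix received acetone-dissolved compounds through a moving flat-fan nozzle. Doses ranged from 15 to 1000 g ai/ha. Pre-emerge pots were seeded one day earlier, post-emerge pots 8–21 days earlier. Fourteen days on, each pot was graded 0–100 for damage.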
# [5] = system: sicklepod (Cassia obtusifolia, CASOB); assay: as above; settings: phytotoxicity rating 0-100 (0 no damage, 100 complete death), 14 days after application
# In short: as §2
# [6] = system: lambsquarters (Chenopodium album, CHEAL); assay: as above; settings: phytotoxicity rating 0-100 (0 no damage, 100 complete death), 14 days after application
# In short: as §2
# [7] = system: johnsongrass (Sorghum halepense, SORHA); assay: as above; settings: phytotoxicity rating 0-100 (0 no damage, 100 complete death), 14 days after application
# In short: as §2
# [8] = system: ivyleaf morningglory (Ipomoea hederacea, IPOHE); assay: as above; settings: phytotoxicity rating 0-100 (0 no damage, 100 complete death), 14 days after application
# In short: as §2
# [9] = system: large crabgrass (Digitaria sanguinalis, DIGSA); assay: as above; settings: phytotoxicity rating 0-100 (0 no damage, 100 complete death), 14 days after application
# In short: as §2
# [10] = system: redroot pigweed (Amaranthus retroflexus, AMARE); assay: as above; settings: phytotoxicity rating 0-100 (0 no damage, 100 complete death), 14 days after application
# In short: as §2
# [11] = system: green foxtail (Setaria viridis, SETVI); assay: as above; settings: phytotoxicity rating 0-100 (0 no damage, 100 complete death), 14 days after application
# In short: as §2
# [12] = system: barnyardgrass (Echinochloa crus-galli, ECHCG); assay: as above; settings: phytotoxicity rating 0-100 (0 no damage, 100 complete death), 14 days after application
# In short: as §2
# [13] = system: velvetleaf (Abutilon theophrasti, ABUTH); assay: Pre-emerge test, greenhouse herbicide activity screening; settings: pre-emerge, rated 14 days after application, 0 = no damage, 100 = complete death
# In short: (§3)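 Sandy loam pots; pre-emerge: sown 1 d pre-spray, surface-watered after, then bottom-watered. Post-emerge: sown 8–21 d before, 2–3 leaf stage, + 0.25% v/v NIS, bottom-watered. Acetone, 187 l/ha track spray, 15–1000 g ai/ha. 0–100 injury score, day 14.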
# [14] = system: sicklepod (Cassia obtusifolia, CASOB); assay: as above; settings: pre-emerge, rated 14 days after application, 0 = no damage, 100 = complete death
# In short: as §3
# [15] = system: lambsquarters (Chenopodium album, CHEAL); assay: as above; settings: pre-emerge, rated 14 days after application, 0 = no damage, 100 = complete death
# In short: as §3
# [16] = system: johnsongrass (Sorghum halepense, SORHA); assay: as above; settings: pre-emerge, rated 14 days after application, 0 = no damage, 100 = complete death
# In short: as §3
# [17] = system: ivyleaf morningglory (Ipomoea hederacea, IPOHE); assay: as above; settings: pre-emerge, rated 14 days after application, 0 = no damage, 100 = complete death
# In short: as §3
# [18] = system: large crabgrass (Digitaria sanguinalis, DIGSA); assay: as above; settings: pre-emerge, rated 14 days after application, 0 = no damage, 100 = complete death
# In short: as §3
# [19] = system: green foxtail (Setaria viridis, SETVI); assay: as above; settings: pre-emerge, rated 14 days after application, 0 = no damage, 100 = complete death
# In short: as §3
# [20] = system: barnyardgrass (Echinochloa crus-galli, ECHCG); assay: as above; settings: pre-emerge, rated 14 days after application, 0 = no damage, 100 = complete death
# In short: as §3
# [21] = system: upland rice (Oryza sp., var. Tebonnet, RICE); assay: Post-emerge test, crop safety; settings: phytotoxicity rating 0-100 (0 no damage, 100 complete death), 14 days after application
# In short: as §3
# [22] = system: field corn (Zea mays L., var. Dekalb 535, CORN); assay: Post-emerge test, crop safety; settings: phytotoxicity rating 0-100 (0 no damage, 100 complete death), 14 days after application
# In short: as §3
smiles,measurement,setting,value
CCOC(=O)C(C)Oc1c(Cl)cc(F)c(-n2c(=O)cc(C(F)(F)F)n(C)c2=O)c1N (centres unmarked) [Compound 1-60],"Pre-emerge Herbicidal Activity AMARE (phytotoxicity rating, scale 0-100)",[1]; 63 g ai/ha,100
same,"Pre-emerge Herbicidal Activity AMARE (phytotoxicity rating, scale 0-100)",[1]; 250 g ai/ha,100
same,"Pre-emerge crop damage RICE (phytotoxicity rating, scale 0-100)",[2]; 63 g ai/ha,40
same,"Pre-emerge crop damage RICE (phytotoxicity rating, scale 0-100)",[2]; 250 g ai/ha,95
same,"Pre-emerge crop damage CORN (phytotoxicity rating, scale 0-100)",[3]; 63 g ai/ha,50
same,"Pre-emerge crop damage CORN (phytotoxicity rating, scale 0-100)",[3]; 250 g ai/ha,95
same,Post-emerge Herbicidal Activity ABUTH,[4]; 63 g ai/ha,100
same,Post-emerge Herbicidal Activity ABUTH,[4]; 250 g ai/ha,100
same,Post-emerge Herbicidal Activity CASOB,[5]; 63 g ai/ha,50
same,Post-emerge Herbicidal Activity CASOB,[5]; 250 g ai/ha,90
same,Post-emerge Herbicidal Activity CHEAL,[6]; 63 g ai/ha,99
same,Post-emerge Herbicidal Activity CHEAL,[6]; 250 g ai/ha,100
same,Post-emerge Herbicidal Activity SORHA,[7]; 63 g ai/ha,0
same,Post-emerge Herbicidal Activity SORHA,[7]; 250 g ai/ha,20
same,Post-emerge Herbicidal Activity IPOHE,[8]; 63 g ai/ha,90
same,Post-emerge Herbicidal Activity IPOHE,[8]; 250 g ai/ha,100
same,Post-emerge Herbicidal Activity DIGSA,[9]; 63 g ai/ha,0
same,Post-emerge Herbicidal Activity DIGSA,[9]; 250 g ai/ha,50
same,Post-emerge Herbicidal Activity AMARE,[10]; 63 g ai/ha,90
same,Post-emerge Herbicidal Activity AMARE,[10]; 250 g ai/ha,100
same,Post-emerge Herbicidal Activity SETVI,[11]; 63 g ai/ha,0
same,Post-emerge Herbicidal Activity SETVI,[11]; 250 g ai/ha,10
same,Post-emerge Herbicidal Activity ECHCG,[12]; 63 g ai/ha,0
same,Post-emerge Herbicidal Activity ECHCG,[12]; 250 g ai/ha,20
same,"Pre-emerge Herbicidal Activity ABUTH (phytotoxicity rating, scale 0-100)",[13]; 63 g ai/ha,100
same,"Pre-emerge Herbicidal Activity ABUTH (phytotoxicity rating, scale 0-100)",[13]; 250 g ai/ha,100
same,"Pre-emerge Herbicidal Activity CASOB (phytotoxicity rating, scale 0-100)",[14]; 63 g ai/ha,70
same,"Pre-emerge Herbicidal Activity CASOB (phytotoxicity rating, scale 0-100)",[14]; 250 g ai/ha,100
same,"Pre-emerge Herbicidal Activity CHEAL (phytotoxicity rating, scale 0-100)",[15]; 63 g ai/ha,100
same,"Pre-emerge Herbicidal Activity CHEAL (phytotoxicity rating, scale 0-100)",[15]; 250 g ai/ha,100
same,"Pre-emerge Herbicidal Activity SORHA (phytotoxicity rating, scale 0-100)",[16]; 63 g ai/ha,80
same,"Pre-emerge Herbicidal Activity SORHA (phytotoxicity rating, scale 0-100)",[16]; 250 g ai/ha,100
same,"Pre-emerge Herbicidal Activity IPOHE (phytotoxicity rating, scale 0-100)",[17]; 63 g ai/ha,90
same,"Pre-emerge Herbicidal Activity IPOHE (phytotoxicity rating, scale 0-100)",[17]; 250 g ai/ha,100
same,"Pre-emerge Herbicidal Activity DIGSA (phytotoxicity rating, scale 0-100)",[18]; 63 g ai/ha,95
same,"Pre-emerge Herbicidal Activity DIGSA (phytotoxicity rating, scale 0-100)",[18]; 250 g ai/ha,100
same,"Pre-emerge Herbicidal Activity SETVI (phytotoxicity rating, scale 0-100)",[19]; 63 g ai/ha,95
same,"Pre-emerge Herbicidal Activity SETVI (phytotoxicity rating, scale 0-100)",[19]; 250 g ai/ha,100
same,"Pre-emerge Herbicidal Activity ECHCG (phytotoxicity rating, scale 0-100)",[20]; 63 g ai/ha,50
same,"Pre-emerge Herbicidal Activity ECHCG (phytotoxicity rating, scale 0-100)",[20]; 250 g ai/ha,95
same,Post-emerge Herbicidal Activity RICE (crop damage),[21]; 63 g ai/ha,10
same,Post-emerge Herbicidal Activity RICE (crop damage),[21]; 250 g ai/ha,40
same,Post-emerge Herbicidal Activity CORN (crop damage),[22]; 63 g ai/ha,0
same,Post-emerge Herbicidal Activity CORN (crop damage),[22]; 250 g ai/ha,50
